Data on 8 compounds can be found in ChEMBL document CHEMBL1201862, “PubChem BioAssay data set” (2004).

The structures appear in SMILES notation. Where a name gives a salt, the structure may show the parent alone.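 Test compounds were applied to cells in 96-well plates for 48 hours at 5 doses. GI50 is the concentration that inhibits growth by half.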 Activity calls are given as the source filed them. No stated cut-off is given here; in the data, active = GI50 up to about 1.1 µM and inactive = higher. Where only a bound is given, the exact number is not on record here.

Experiment in all cases: NCI-60 cell line screen, 48 h
In assay [1] the test system is NCI/ADR-RES.
Assay [2] deals with M14.
Assay [3] concerns MDA-MB-231.
Assay [4] deals with PC-3.
Assay [5] concerns T47D.
Assay [6] deals with SN12C.
Assay [7] concerns OVCAR-5.
In assay [8] the test system is UACC-62.
The test system of assay [9] is SK-MEL-5.
Assay [10] relates to COLO 205.
Assay [11] deals with TK-10.
In assay [12] the test system is SF-268.
Assay [13] concerns DU-145.
Assay [14] has as its system CAKI-1.
The subject of assay [15] is SW-620.
Assay [16] relates to Malme-3M.
Assay [17] relates to OVCAR-4.
Assay [18] concerns SK-OV-3.
Assay [19] deals with SK-MEL-2.

With `Clc1cccc(C2ON=C(c3ccccc3)N2C23CC4CC(CC(C4)C2)C3)c1Cl` (stereo unspecified), the GI50 is > 10 µM (inactive) in assay [1]; > 10 µM (inactive) in assay [2]; > 10 µM (inactive) in assay [3]; 6.41 µM (inactive) in [4]; > 10 µM (inactive) in assay [5]; > 10 µM (inactive) in assay [6]. Moreover, the GI50 in assay [7], in [8], in assay [9], in [10], in assay [11] and in assay [12] was > 10 µM (inactive) throughout. Moreover, the GI50 in [13], in assay [14], in [15], in [16], in assay [17] and in [18] was > 10 µM (inactive) throughout. Besides, the GI50 in [19] is > 10 µM (inactive).

For the compound `O=[N+]([O-])C(C(Cl)=C(Cl)Cl)=C(N1CCOCC1)N1CCOCC1`, the GI50 in assay [2], in [3], in assay [4], in assay [5], in assay [6] and in [7] was > 100 µM (inactive) in each case. Besides, the GI50 in assay [8], in assay [9], in assay [10], in [11], in assay [12] and in assay [13] was > 100 µM (inactive) each time. Further, the GI50 was > 100 µM (inactive) in [14]; 57.3 µM (inactive) in [16]; > 100 µM (inactive) in assay [17]; > 100 µM (inactive) in assay [18]; > 100 µM (inactive) in [19].

In the case of `CCOC(=O)c1ccc(NCc2ccc3oc(=O)c(-c4ccccc4)nc3c2)cc1`, the GI50 in [1] was 50.7 µM (inactive); in [2], 31.3 µM (inactive); in assay [3], 64.7 µM (inactive); in [4], 45.2 µM (inactive); in assay [5], 12.4 µM (inactive); in assay [6] it was > 100 µM (inactive). The GI50 in assay [7] was > 100 µM (inactive); in [8] it was > 100 µM (inactive); in [9] it was 23.6 µM (inactive); in assay [10], 23.2 µM (inactive); in assay [12] it was 64.1 µM (inactive); in [13], 36.2 µM (inactive). The GI50 is 5.2 µM (inactive) in assay [14]; 21.6 µM (inactive) in [15]; 18.8 µM (inactive) in [16]; 18 µM (inactive) in [17]; > 100 µM (inactive) in assay [18]; > 100 µM (inactive) in [19].

As for `CN(C)c1cccc2c(S(=O)(=O)NCCCNCCN)cccc12`, the GI50 in assay [1] was > 100 µM (inactive); in assay [2], 18.9 µM (inactive); in [3], 41.5 µM (inactive); in assay [4], 44.2 µM (inactive); in [5], 49.4 µM (inactive); in [6], 78 µM (inactive). Besides, the GI50 is 38.1 µM (inactive) in assay [7]; 51.2 µM (inactive) in assay [8]; 20.8 µM (inactive) in assay [9]; 17.6 µM (inactive) in assay [10]; 65.6 µM (inactive) in [12]; > 100 µM (inactive) in assay [13]. The GI50 was > 100 µM (inactive) in assay [14]; 55.2 µM (inactive) in [15]; 61.5 µM (inactive) in assay [16]; 55.2 µM (inactive) in assay [17]; 46.9 µM (inactive) in [18]; 25.9 µM (inactive) in assay [19].

Take `COCn1cc(C2=C(C)C(=O)C(C)=C(C)C2=O)cn1`: the GI50 is 26.2 µM (inactive) in assay [1]; > 100 µM (inactive) in [2]; 18.6 µM (inactive) in assay [3]; > 100 µM (inactive) in assay [4]; 23.6 µM (inactive) in assay [5]; > 100 µM (inactive) in [6]. Also, the GI50 in assay [7] was > 100 µM (inactive); in [8], > 100 µM (inactive); in assay [9], 38.1 µM (inactive); in [10], > 100 µM (inactive); in [11] it was > 100 µM (inactive); in assay [12], 25.4 µM (inactive). Further, the GI50 was > 100 µM (inactive) in [13]; > 100 µM (inactive) in assay [14]; > 100 µM (inactive) in assay [15]; 99.5 µM (inactive) in assay [16]; 17.7 µM (inactive) in [17]; > 100 µM (inactive) in assay [19].

`C#Cc1cccc(Nc2ncnc3cc(OCCOC)c(OCCOC)cc23)c1` [ERLOTINIB HYDROCHLORIDE]: the GI50 in assay [1] is 7.67 µM (inactive); in assay [2] it was 6.67 µM (inactive); in assay [3] it was 0.0139 µM (active); in assay [4] it was 34.5 µM (inactive); in assay [6] it was < 0.01 µM (active); in [7] it was > 100 µM (inactive). Also, the GI50 in assay [8] was < 0.01 µM (active); in [9], 1.41 µM (inactive); in assay [10] it was 4.99 µM (inactive); in assay [14], < 0.01 µM (active); in [15], > 100 µM (inactive); in [17], 27.2 µM (inactive). Further, the GI50 in [18] is 0.286 µM (active); in [19], 4.11 µM (inactive).

Regarding `O=C1Cc2c([nH]c3ccc(Br)cc23)-c2ccccc2N1` [KENPAULLONE], the GI50 in assay [1], in assay [2], in assay [3], in assay [4], in assay [5] and in assay [6] was > 100 µM (inactive) each time. Also, the GI50 was > 100 µM (inactive) in [7]; > 100 µM (inactive) in assay [8]; > 28.4 µM (inactive) in assay [9]; > 100 µM (inactive) in [10]; > 100 µM (inactive) in assay [11]; > 75.5 µM (inactive) in assay [12]. The GI50 in [13], in assay [16], in [17], in assay [18] and in [19] was > 100 µM (inactive) in each case.

As to `O=C(O)c1ccc(Nc2cnc3cc(C(F)(F)F)ccc3n2)cc1`, the GI50 in assay [1] is 40.9 µM (inactive); in assay [3], 36.7 µM (inactive); in assay [4], 80.7 µM (inactive); in assay [5] it was 20.9 µM (inactive); in assay [6], 85.5 µM (inactive); in assay [7], 34 µM (inactive). Besides, the GI50 in assay [8] is 25.3 µM (inactive); in assay [9] it was 40.8 µM (inactive); in [10], > 100 µM (inactive); in assay [11], 31.5 µM (inactive); in [12], > 100 µM (inactive); in [13] it was 58.5 µM (inactive). Also, the values for the GI50 in assay [14], in [15] and in [16] were > 100 µM (inactive), 69.8 µM (inactive) and 29.5 µM (inactive), respectively.
